Data published in US20250195498A1, “INHIBITOR OF CELLULAR PURINE NUCLEOTIDE SALVAGE PATHWAY ENZYME FOR USE IN THE TREATMENT AND/OR PREVENTION OF HELICOBACTER PYLORI INFECTION AND/OR DISEASE ASSOCIATED WITH SUCH INFECTION AND PHARMACEUTICAL COMPOSITION COMPRISING THE SAME” (UNIWERSYTET WARSZAWSKI, priority 2022, published 2025).
In brackets after ≈: the same amount, converted by molar mass. Several values for one entry are separate records, joined by “and”; a condition that tells them apart may be missing. Equal entries are not always repeated. Where two headings read alike, the source gives them in different places. One block for each compound: values may come before it.

Experiments:
H. pylori strain 26695 = assay: Growth curve method / MIC in liquid culture, strain 26695; format: cell-based, Helicobacter pylori; conditions: strain 26695; for MIC: read-out: MIC; for growth inhibition: 200 μM, partially precipitated; for % inhibition of H. pylori cell cultures at maximum inhibitor solubility: at maximum solubility in 3.5% DMSO
Method: The representative PNP inhibitor from H. pylori included in this study was immucillin A. The experiment was conducted using the growth curve method (two-fold serial dilutions in liquid medium). The tested H. pylori strains were cultured in Petri dishes with BHI solid medium supplemented with 10% FBS and 1% H. pylori Selective Supplement antibiotic kit, in anaerostats under microaerophilic conditions (5% 02, 10% CO2, 85% N2) at 37° C. for 3 days. Liquid culture of H. pylori was conducted overnight with shaking at 37° C. under microaerophilic conditions in BHI medium supplemented with 10% FBS and 1% H. pylori Selective Supplement antibiotic kit. Subsequently, for the essential experiment of determining the minimum inhibitory concentration (MIC), double strengthened liquid BHI medium was prepared, that is, supplemented with 20% FBS and a 2% set of H. pylori Selective Supplement antibiotics.
Bacterial proliferation inhibition experiments were carried out in 24-deep-well 2 ml flat-bottomed plates at a solution volume per well of 0.5 ml. In a single well, double strengthened (relative to the concentration planned for testing) solutions of the test inhibitor and double strengthened liquid BHI medium inoculated with H. pylori (10^4-10^5 CFU/ml in the final volume in the well, corresponding to the optical density of the culture OD600=0.05) were mixed together in a 1:1 ratio.
Kanamycin at a concentration of 25 μg/ml (Irie et al., 1997) was used as a positive control, while Mili-Q deionized water and BHI medium not inoculated with bacteria were used as negative controls. Plates were shaken at 37° C., under microaerophilic conditions. […] After 24 hours, the OD600 of samples containing the negative control, i.e. with Mili-Q deionized water, was about 1.2-1.4, corresponding to a bacterial concentration of about […].
In addition, the method proposed by Knezevic et al. (2018) was used to check whether the observed OD600 was from live bacterial cells. For this purpose, an equal volume of Christensen's double strength urea broth (that is, containing twice the concentration of all components) was added to the wells after incubation, and the plates were additionally incubated for 4 hours in an oxygen atmosphere at 37° C. During incubation, in wells with urease produced by live bacteria, urea is converted to ammonia and carbon dioxide, changing the pH of the solution and thus the colour of the phenol red indicator contained in the medium (from orange to purple).
All experiments were performed in triplicate.
The experiments were carried out using the growth curve method as described in Example 3, and the results obtained for two of the compounds tested are shown in FIG. 5. As the water solubility of the compounds tested, with the exception of 2,6-diCl-Pu, is relatively poor, two experiments were carried out: the first with the maximum concentration possible under the experimental conditions in aqueous solution with a small admixture of DMSO, and the second with higher concentrations that led to partial precipitation of the compound.
The antibacterial activity of two compounds, mefloquine (in the form of hydrochloride) and quinine, described in the literature as potent in vitro inhibitors of the PNP enzyme from Plasmodium falciparum (Dziekan et al., 2019), was tested. Using a two-fold serial dilution method in liquid medium (as described in Example 3), the MIC values for mefloquine and quinine were determined against clinical H. pylori strains resistant to MTZ, CLR and MTZ+CLR (M26, M91, M92 and M93), as well as the reference H. pylori strain 26695. Four clinical H. pylori strains isolated from adults, from primary infections (the subjects had never previously been treated against H. pylori infection) were tested. These strains come from the collection of the Department of Microbiology of the Medical University of Wroclaw and were obtained due to collaboration with Prof. Grażyna Gościniak, MD, PhD. […]

[1] = target: T1, PNP from H. pylori strain 26695 (Helicobacter pylori, UniProt P56463); assay: Inhibition of PNP from H. pylori, spectrophotometric phosphorolysis assay; format: biochemical
T1 construct: made in house; host or cells: E. coli
T1 sequence (P56463 whole entry): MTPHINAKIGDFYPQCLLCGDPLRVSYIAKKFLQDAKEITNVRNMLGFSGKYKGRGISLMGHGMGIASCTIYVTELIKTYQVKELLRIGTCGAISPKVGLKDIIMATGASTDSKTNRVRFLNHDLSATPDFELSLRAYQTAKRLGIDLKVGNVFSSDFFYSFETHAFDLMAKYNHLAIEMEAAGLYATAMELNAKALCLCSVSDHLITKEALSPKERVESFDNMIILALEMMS
Text: The specific activity of PNP is usually determined using inosine as a substrate, in an assay in which the phosphorolysis product, hypoxanthine, is oxidized to uric acid in a reaction catalysed by xanthine oxidase. However, in the inhibition assay of PNP from H. pylori strain 26695, 7-methylguanosine (m^7Guo) and guanosine (Guo) were used as nucleoside substrates to avoid potential inhibition of xanthine oxidase by the test compounds. Phosphorolysis of these two substrates can be observed using a direct spectrophotometric method in a known manner.
Enzymatic activity was studied in a quartz cuvette with an optical path length of 1 cm or 0.5 cm. The absorbance of the reaction mixture, at the observation wavelength, never exceeded 1.2. The reaction volume was 1 ml or 1.4 ml in cuvettes with optical path lengths of 1 cm and 0.5 cm, respectively. The reaction mixture contained 50 mM Hepes/NaOH buffer, pH 7.0, 50 mM phosphate buffer, pH 7.0 (unless otherwise indicated), nucleoside substrate and inhibitor (with the latter not added to the reference/control reactions). Reactions were usually initiated by adding the enzyme to a cuvette containing the other reaction components. However, in cases where possible slow formation of an inhibitor-enzyme complex was checked, a second variant was also used involving incubation of the enzyme in a reaction mixture containing the inhibitor but lacking the substrate, 7-methylguanosine, and initiation of the reaction by adding this substrate.
In order to determine the inhibition constants and determine the molecular mechanism of inhibition, equations describing different mechanisms of inhibition were fitted to the obtained experimental data. GraphPad Prism 8 program was used. The model best describing the obtained data was selected based on the sum of squares of deviations using the F test for models with different number of parameters and the Akaike criterion (AIC) for models with the same number of parameters.
The following equations were used to describe competitive inhibition, characterized by the inhibition constant Kic, [1], uncompetitive, characterized by the inhibition constant Kiu, [2], non-competitive, characterized by the inhibition constant Kin, [3], and mixed, characterized by the inhibition constants Kiu and Kic, [4] (Segel, 1993):
The last equation can also be represented in the following form, as used by GraphPad Prism software, where Kiu=alpha Kic:
Immucillin A was chosen as the most promising one for potential pharmacological use in combating H. pylori infection because immucillin A has an amino substituent at position 6 of the 9-dazapurine ring, while PNP found in the human body requires a substituent at this position having electron-pairs-hydrogen bond acceptors, such as a substituent in the form of a keto group, to strongly bind the ligand. According to the invention, it is therefore believed that immucillin A will not interact with the host PNP, and thus allow selective inhibition of the PNP from H. pylori. Using the methods described above, the effect of immucillin A on the rate of the 7-methylguanosine (m^7Guo) phosphorolysis reaction catalysed by PNP from H. pylori was examined (FIG. 1). Since it is known (Schramm, 2018) that immucillins form a strongly bound complex with the enzyme relatively slowly, reactions were initiated by adding the substrate, m^7Guo, to a cuvette in which the enzyme was incubated with the inhibitor, as described in Example 1.
Data analysis was also performed as described in this Example. The range of substrate concentrations tested was 10-200 μM or 10-280 μM (shown in FIG. 4), and the range of inhibitor concentrations was chosen according to the observed degree of inhibition of the reaction, in order to obtain a significant degree of inhibition that allows determination of the inhibition mechanism and determination of inhibition constants (see FIG. 4). […]

[2] = Helicobacter pylori, inhibitor partially precipitated, actual dissolved concentration lower
[3] = 7-methylguanosine substrate, 25° C., pH 7.0, 50 mM phosphate, mixed type model, read-out: Kic
[4] = 7-methylguanosine substrate, 25° C., pH 7.0, 50 mM phosphate, mixed type model, read-out: Kiu
[5] = 7-methylguanosine substrate, 25° C., pH 7.0, 50 mM phosphate, non-competitive model, read-out: Kin
[6] = 7-methylguanosine substrate, 25° C., pH 7.0, 50 mM phosphate, uncompetitive model, read-out: Kiu
[7] = 7-methylguanosine substrate, mixed type model

SMILES: c1ccc(CSc2ncnc3nc[nH]c23)cc1 [6BnS-Pu, 6-benzylthiopurine]
MIC (H. pylori strain 26695; [2]): 48 µg/mL and 200 µM
growth inhibition (H. pylori strain 26695): Complete inhibition
% inhibition of H. pylori cell cultures at maximum inhibitor solubility (H. pylori strain 26695): 83%

SMILES: Clc1nc(OCc2ccccc2)c2[nH]cnc2n1 [6BnO-2Cl-Pu, 6-benzyloxy-2-chloropurine]
Ki [1, 3]: 18.3 ± 7.3 µM
Ki [1, 4]: 4.6 ± 0.5 µM
Ki [1, 5]: 6.5 ± 0.4 µM
Ki [1, 6]: 3.8 ± 0.3 µM
alpha = Kiu/Kic [1, 7]: 0.25 ± 0.12
inhibition at 350 µM (H. pylori strain 26695; Helicobacter pylori, 350 μM (91 μg/ml), inhibitor partially precipitated, read-out: % inhibition of H. pylori cell cultures): 75%
% inhibition of H. pylori cell cultures at maximum inhibitor solubility (H. pylori strain 26695): 35%

SMILES: NC[C@H]1O[C@H](O[C@H]2[C@H](O)[C@@H](O[C@H]3O[C@H](CO)[C@@H](O)[C@H](N)[C@H]3O)[C@H](N)C[C@@H]2N)[C@H](O)[C@@H](O)[C@@H]1O [Kanamycin, kanamycin]
inhibition at 52 µM (H. pylori strain 26695; Helicobacter pylori, kanamycin 25 μg/ml (52 μM), positive control, read-out: % inhibition of H. pylori cell cultures): 92 to 96%

SMILES: Clc1nc(Cl)c2[nH]cnc2n1 [2,6-diCl-Pu, 2,6-dichloropurine]
MIC (H. pylori strain 26695; Helicobacter pylori): 473 µg/mL and 2500 µM
% inhibition of H. pylori cell cultures at maximum inhibitor solubility (H. pylori strain 26695): 93%

SMILES: Clc1nc(Cl)c2[nH]cnc2n1 [2,6-dichloropurine]
Ki [1, 3]: 20 ± 4.9 µM
Ki [1, 4]: 23.5 ± 3.5 µM
Ki [1, 5]: 22.2 ± 1.4 µM
alpha = Kiu/Kic [1, 7]: 1.17 ± 0.44

SMILES: c1ccc(CSc2ncnc3nc[nH]c23)cc1 [6-benzylthiopurine]
Ki [1, 3]: 7.5 ± 1.3 µM
Ki [1, 4]: 8.1 ± 0.7 µM
Ki [1, 5]: 7.9 ± 0.4 µM
alpha = Kiu/Kic [1, 7]: 1.07 ± 0.27

SMILES: Clc1nc(SCc2ccccc2)c2[nH]cnc2n1 [6BnS-2Cl-Pu, 6-benzylthio-2-chloropurine]
Ki [1, 3]: 13.2 ± 10.7 µM
Ki [1, 4]: 2.1 ± 0.3 µM
Ki [1, 6]: 1.8 ± 0.2 µM
alpha = Kiu/Kic [1, 7]: 0.16 ± 0.15
MIC (H. pylori strain 26695; [2]): 69 µg/mL and 250 µM
% inhibition of H. pylori cell cultures at maximum inhibitor solubility (H. pylori strain 26695): 92%

SMILES: Nc1ncnc2c([C@@H]3N[C@H](CO)C(O)[C@@H]3O)c[nH]c12 (stereo partly shown) [immucillin A]
Ki [1]: 0.0013 ± 0.0002 µM
MIC (H. pylori strain 26695; Helicobacter pylori): 80 µM (≈ 21.2 µg/mL)

Ki [1, 3]: 6.2 ± 2.4 µM
Ki [1, 4]: 2.9 ± 0.5 µM
alpha = Kiu/Kic [1, 7]: 0.47 ± 0.24
alpha = Kiu/Kic ([1]; guanosine as a substrate, mixed type model): 0.16 ± 0.08
Ki ([1]; guanosine as a substrate, mixed type model, read-out: Kic): 12.6 ± 5.7 µM
Ki ([1]; guanosine as a substrate, mixed type model, read-out: Kiu): 2 ± 0.2 µM
SMILES: OC[C@H]1O[C@@H](n2cnc3c(SCc4ccccc4)nc(Cl)nc32)C[C@@H]1O [6BnS-2Cl-Pu-9dr, 2-chloro-6-benzylthiopurine-2′-deoxy-9-ribofuranoside]
growth inhibition (H. pylori strain 26695): complete growth inhibition
% inhibition of H. pylori cell cultures at maximum inhibitor solubility (H. pylori strain 26695): 5%
